Laboratory results: patent US4853401A, “Spiro-hydantoins as aldose reductase inhibitors” (priority 1987, dated 1989)

Assays:
aldose reductase = molecular target: T1, aldose reductase (Rattus norvegicus, UniProt P07943); assay: Inhibition of enzymatic activity of aldose reductase in vitro; type: biochemical; details: 10^-4 M, rat crystalline lens enzyme, pH 6.2, D,L-glyceraldehyde substrate; read-out: Inhibition of enzymatic activity of AR in vitro
T1 construct: The supernatant liquid formed the enzyme solution used for the test; from tissue; host or cells: rat crystalline lens, water homogenate, supernatant
Excerpt: 1.1 Inhibiting effect on enzymatic activity of aldose reductase:
The method described by S. Hayman and J. H. Kinoshita (J. Biol. Chem., 240, 877 (1965)) was used for in vitro testing of the aforementioned effect of the products according to the invention.
Rat's crystalline lens was homogenized in water and centrifuged to eliminate insoluble substances. The supernatant liquid formed the enzyme solution used for the test.
The effect of products according to the invention in inhibiting enzymatic activity of aldose reductase was determined by spectrophotometrically following for 5 minutes the disappearance of NADPH in an aqueous solution containing 0.067M phosphate buffer (final pH: 6.2), 0.40M lithium sulphate, 5.10^-5 M NADPH, 10^-4 M of the product under test and 100 μl of the enzyme solution, to which 10^-2 M of D,L-glyceraldehyde had been added as substrate. (NADPH=reduced form of nicotinamide adenine dinucleotide phosphate).
The inhibiting effect observed in the presence of 10^-4 M of product under test relative to the reaction in the absence of a compound according to the invention, is expressed as a percentage.

[1] = system: accumulation of sorbitol in the crystalline lenses; assay: Inhibition of accumulation of sorbitol in crystalline lenses of diabetic rats; type: in vivo, Sprague Dawley rats; details: for Inhibition of accumulation of sorbitol in vivo, crystalline lenses: oral 25 mg/kg at 0, 7 and 24 h, sacrificed 27 h; for inhibition of accumulation of sorbitol in crystalline lenses and sciatic nerves (in words): oral 25 mg/kg
Experimental: (§1) 2.1 Inhibition of accumulation of sorbitol in crystalline lenses and nerves of diabetic rats:
(§2) The effects of the products according to the invention on the proportion of plasma glucose and the accumulation of sorbitol in the crystalline lenses and sciatic nerves of rats made diabetic by streptozotocin were examined by the method of M. J. Peterson, et al (Metabolism, 28, 456-461 (1979)).
(§3) Fasted Sprague Dawley rats were made diabetic by intraperitoneal injection of streptozotocin (75 mg/kg). The product under test was orally administered at a dose of 25 mg/kg after 0, 7 and 24 hours. The rats were sacrificed 27 hours after induction of diabetes. The crystalline lenses and sciatic nerves were taken and preserved at -20° C. until analysed. The crystalline lenses and sciatic nerves were homogenized in water and the proteins were precipitated from ethanol. The precipitate was eliminated by centrifuging and the supernatant liquid was lyophylised. The sorbitol in the sample was determined by the method of B. Bjorkqvist (J. of Chromatograph, 218, 65-71 (1981)), adapted by A. Lenaers et al. (Arch. Intern. Physiol. Bioch., 91, B, 62-63 (1983)).
(§4) The sample was dissolved in pyridine containing galactitol as an internal standard. Derivatives were formed therefrom by phenylisocyanate during incubation for 1 hour at 60° C. The reaction was then stopped by adding methanol and the derivatives were separated and determined by HPLC.
(§5) The results are expressed as percentage inhibition of the accumulation of sorbitol, compared with the controls.

[2] = system: accumulation of sorbitol in the sciatic nerves; assay: Inhibition of accumulation of sorbitol in sciatic nerves of diabetic rats; type: in vivo, Sprague Dawley rats; details: oral 25 mg/kg at 0, 7 and 24 h, sacrificed 27 h
Experimental: as §1, §2, §3, §4, §5

[3] = Acute oral toxicity (LD50); type: in vivo; details: mouse, in vivo, mice, read-out: Lethal dose LD50
Experimental: The LD 50 was calculated by the method of Litchfield and Wilcoxon (J. Pharmacol. Exp. Ther., 96, 99, 1949) and is expressed in mg/kg. The products were orally administered to mice.
(§6) Behaviour was studied, 2, 4, 6 and 24 hours after treatment. Observation was continued if symptoms persisted at that time. Deaths were recorded during the 14 days after treatment. The results are given in Table II, in which the numbers of the compounds are the same as the numbers given in column 1 of Table I.

[4] = system: accumulation of galactitol in fibroblasts obtained from human skin; assay: Inhibition of accumulation of galactitol in fibroblasts; type: cell-based; details: Fibroblast, 48 h, 37° C., galactose 3 mg/ml; for inhibition at 100 µM: 10^-4 M; for inhibition at 10 µM: 10^-5 M; for inhibition at 1 µM: 10^-6 M
Experimental: 1.2 Inhibiting effect on accumulation of galactitol:
A test for evaluating this activity was made in vitro on fibroblasts obtained from human skin.
An experimental model culture was obtained by incubating the cells in the presence of a medium containing a high concentration of galactose (3 mg/ml) and the product under test, and measuring the accumulation of galactitol in the cells after a 48-hour incubation period at 37° C. The cells were then isolated, washed in physiological salt solution and treated with a water-ethanol solution. The medium was centrifuged and the supernatant liquid was lyophylized.
The galactitol in the resulting sample was determined by HPLC (=high pressure liquid chromatography) after derivatives had been obtained with phenyl isocyanate.
The proportion of proteins in the precipitate obtained during the previously-mentioned centrifuging was measured by the method of M. M. Bradford (Anal. Biochem., 72, 248-254 (1976)) and indicated the number of cells present in the sample.
The inhibiting effect of the tested product was expressed as a percentage inhibition of intracellular accumulation of galactitol compared with the controls.

[5] = Effect of in vivo doses on plasma glucose of diabetic rats; design: species or system Sprague Dawley rats; details: n = 5, average ± standard deviation
Experimental: Compound No. 1 (CP 3182 AR) and No. 2 (CP 3192 AR) were evaluated at various doses, using the experimental model described hereinbefore (.sctn.2.1).
In the case of each product, 25 Sprague Dawley rats fasted the previous day were made diabetic by an intraperitoneal injection of streptozotocin (75 mg/kg). The rats were divided into 5 groups of 5, each orally given 0.3, […] or 10 mg/kg of CP 3182 AR or a control.
An identical experiment was performed with CP 3192 AR at the same doses. Treatment was given immediately after the streptozotocin, and 7 and 24 hours later. The animals were sacrificed 27 hours after induction. Estimates were made of the effects of the products on the proportion of plasma glucose and the sorbitol content of the crystalline lenses and sciatic nerves of rats.

mice = assay: Effect on behaviour (Irwin method), side effects; type: in vivo
Experimental: The effect on behaviour was studied by a method derived from that of S. Irwin (Gordon Res. Conf. on Medicinal Chem., 133, 1959). The substances, suspended in 1% tragacanth mucilage, were orally administered via an intra-gastric probe to groups of 5 male mice fasted for 18 hours. The maximum tested dose was 3 000 mg/kg or 1 000 mg/kg, and smaller doses were tested if an effect has been observed.
as §6

[6] = system: sorbitol accumulation in crystalline lenses; assay: Effect of in vivo doses on sorbitol accumulation in crystalline lenses of diabetic rats; design: species or system Sprague Dawley rats
Excerpt: (§7) 2.2 Effect of "in vivo" doses on sorbitol accumulation in sciatic nerves and crystalline lenses of diabetic rats:
(§8) Estimates were made of the effects of the products on the proportion of plasma glucose and the sorbitol content of the crystalline lenses and sciatic nerves of rats.

[7] = system: sorbitol accumulation in sciatic nerves; assay: Effect of in vivo doses on sorbitol accumulation in sciatic nerves of diabetic rats; design: species or system Sprague Dawley rats
Excerpt: as §7, §8

## CCCCCCCC(=O)OCN1C(=O)N(COC(=O)CCCCCCC)C2(C1=O)c1ccccc1-c1ccccc12 [Compound 6, bis-(1',3'-n.octanoyloxymethyl)-spiro-/fluorene-9,4'-imidazolidine/-2',5'-dione]
Aldose reductase
  inhibition at 100 µM: 0%
[1]
  Inhibition of accumulation of sorbitol in vivo, crystalline lenses: 76%
[2]
  Inhibition of accumulation of sorbitol in vivo, in sciatic nerves: 79%
[3]
  LD50 at 336 h: > 3000 mg/kg

## CCC(=O)OCN1C(=O)N(COC(=O)CC)C2(C1=O)c1ccccc1-c1ccccc12 [Compound 5, bis-(1',3'-propanoyloxymethyl)-spiro-[fluorene-9,4'-imidazolidine]-2',5'-dione]
[1]
  Inhibition of accumulation of sorbitol in vivo, crystalline lenses: 74%
  inhibition of accumulation of sorbitol in crystalline lenses and sciatic nerves (in words): particularly active
[2]
  Inhibition of accumulation of sorbitol in vivo, in sciatic nerves: 81%
[4]
  inhibition at 100 µM: 91%
  inhibition at 10 µM: 56%
  inhibition at 1 µM: 24%

## CCCCC(=O)OCN1C(=O)N(COC(=O)CCCC)C2(C1=O)c1ccccc1-c1ccccc12 [Compound 15]
Aldose reductase
  inhibition at 100 µM: 0%
[1]
  Inhibition of accumulation of sorbitol in vivo, crystalline lenses: 54%
[2]
  Inhibition of accumulation of sorbitol in vivo, in sciatic nerves: 74%

## O=C(CCCc1ccccc1)OCN1C(=O)N(COC(=O)CCCc2ccccc2)C2(C1=O)c1ccccc1-c1ccccc12 [Compound 11]
Aldose reductase
  inhibition at 100 µM: 0%
[1]
  Inhibition of accumulation of sorbitol in vivo, crystalline lenses: 4%
[2]
  Inhibition of accumulation of sorbitol in vivo, in sciatic nerves: 24%

## COCN1C(=O)NC2(C1=O)c1ccccc1-c1ccccc12 [Compound 17, 1'-(methoxymethyl)-spiro-/fluorene-9,4'-imidazolidine/-2',5'-dione]
Aldose reductase
  inhibition at 100 µM: 84%
[1]
  Inhibition of accumulation of sorbitol in vivo, crystalline lenses: 86%
  inhibition of accumulation of sorbitol in crystalline lenses and sciatic nerves (in words): particularly active
[2]
  Inhibition of accumulation of sorbitol in vivo, in sciatic nerves: 92%

## CC(=O)OCN1C(=O)NC2(C1=O)c1ccccc1-c1ccccc12 [Compound 21, 1'-(acetoxymethyl)-spiro-/fluorene-9,4'-imidazolidine/-2',5'-dione]
Aldose reductase
  inhibition at 100 µM: 8%
[1]
  Inhibition of accumulation of sorbitol in vivo, crystalline lenses: 85%
  inhibition of accumulation of sorbitol in crystalline lenses and sciatic nerves (in words): particularly active
[2]
  Inhibition of accumulation of sorbitol in vivo, in sciatic nerves: 94%
[3]
  LD50 at 336 h: > 1000 mg/kg

## O=C1N(CO)C(=O)C2(c3ccccc3-c3ccccc32)N1CO [Compound 1, bis-(1',3'-hydroxymethyl)-spiro-/fluorene-9,4'-imidazolidine/-2',5'-dione]
[5]; 0.3 mg/kg oral
  Plasma glucose: 462 ± 60 mg/100 ml
[5]; 1 mg/kg oral
  Plasma glucose: 538 ± 34 mg/100 ml
[5]; 3 mg/kg oral
  Plasma glucose: 464 ± 62 mg/100 ml
[5]; 10 mg/kg oral
  Plasma glucose: 424 ± 37 mg/100 ml
Aldose reductase
  inhibition at 100 µM: 34%
[1]
  Inhibition of accumulation of sorbitol in vivo, crystalline lenses: 81%
  inhibition of accumulation of sorbitol in crystalline lenses and sciatic nerves (in words): particularly active
mice; dose of 3000 mg/kg
  side effect observed: no side effect was observed
mice; mice, oral
  MED (minimum dose at which a side effect is observed): > 3 000 mg/kg
[2]
  Inhibition of accumulation of sorbitol in vivo, in sciatic nerves: 85%
[3]
  LD50 at 336 h: > 3000 mg/kg
[6]; 0.3 mg/kg oral at 0, 7, 24 h
  % inhibition of sorbitol accumulation, Crystalline lenses: 0 ± 21%
[6]; 1 mg/kg oral at 0, 7, 24 h
  % inhibition of sorbitol accumulation, Crystalline lenses: 1 ± 3%
[6]; 3 mg/kg oral at 0, 7, 24 h
  % inhibition of sorbitol accumulation, Crystalline lenses: 41%
[6]; 10 mg/kg oral at 0, 7, 24 h
  % inhibition of sorbitol accumulation, Crystalline lenses: 71%
[6]; Rattus norvegicus, 27 h, crystalline lenses, diabetic rats, oral, read-out: ED50 (dose at which measured inhibition of aldose reductase activity is 50%)
  ED50: 3 mg/kg
[6]; crystalline lenses
  therapeutic index MED/ED50, crystalline lenses: about 1 000
[4]
  inhibition at 100 µM: 85%
  inhibition at 10 µM: 58%
  inhibition at 1 µM: 21%
[7]; 0.3 mg/kg oral at 0, 7, 24 h
  % inhibition of sorbitol accumulation, Sciatic nerves: 29 ± 14%
[7]; 1 mg/kg oral at 0, 7, 24 h
  % inhibition of sorbitol accumulation, Sciatic nerves: 41 ± 10%
[7]; 3 mg/kg oral at 0, 7, 24 h
  % inhibition of sorbitol accumulation, Sciatic nerves: 69 ± 8%
[7]; 10 mg/kg oral at 0, 7, 24 h
  % inhibition of sorbitol accumulation, Sciatic nerves: 82 ± 6%
[7]; Rattus norvegicus, 27 h, sciatic nerves, diabetic rats, oral, read-out: ED50 (dose at which measured inhibition of aldose reductase activity is 50%)
  ED50: 1 mg/kg
[7]; sciatic nerves
  therapeutic index MED/ED50, sciatic nerves: above 3 000

## CNC(=O)OCN1C(=O)N(COC(=O)NC)C2(C1=O)c1ccccc1-c1ccccc12 [Compound 22]
Aldose reductase
  inhibition at 100 µM: 0%
[1]
  Inhibition of accumulation of sorbitol in vivo, crystalline lenses: 21%
[2]
  Inhibition of accumulation of sorbitol in vivo, in sciatic nerves: 17%

## O=C(COc1ccccc1)OCN1C(=O)N(COC(=O)COc2ccccc2)C2(C1=O)c1ccccc1-c1ccccc12 [Compound 14]
[1]
  Inhibition of accumulation of sorbitol in vivo, crystalline lenses: 51%
[2]
  Inhibition of accumulation of sorbitol in vivo, in sciatic nerves: 61%
[3]
  LD50 at 336 h: > 1000 mg/kg
